Structure (SMILES)	melting point
COc1ccc(-n2c(N)cc(=O)nc2SC)cc1	182 to 186 °C
CON1CCC(=Cc2nc(C(C)(C)C)c(O)c(C(C)(C)C)n2)C1=O	184 to 186 °C
CSc1nnc(-c2ccccc2Nc2c(Cl)ccc(C)c2Cl)o1	170 to 171 °C
O=C(O)c1ccc(Cl)nc1Nc1ccccc1	181 to 185 °C
O=[N+]([O-])c1cc([N+](=O)[O-])c2[nH]c(C(F)(F)F)nc2c1N1CCCCC1	207 to 209 °C
COc1ccc(-c2cc(=O)c3cccnc3o2)cc1	269 to 270 °C
Cc1ccnc(NC(c2ccc([N+](=O)[O-])cc2)c2ccccc2O)n1 (stereo not drawn)	136 to 145 °C
CCOc1cc2c(O)c(C(=O)O)cnc2nc1C	259 to 261 °C
COc1ccc([N+](=O)[O-])c2[nH]ccc(=O)c12	195 to 200 °C
COc1ccc(/C=C/C(=O)N2CC(CCl)c3c2cc(O)c2ncccc32)cc1O (stereo not drawn)	215 to 218 °C
COC(=O)c1cccc2oc(-c3ccccc3O)nc12	134 to 135 °C
COC(=O)c1nc(N(C)C)ccc1OCc1ccccc1	71.5 to 73 °C
Cc1cc(-c2nc3cccnn3c2-c2ccnc(NC(=O)Nc3cccnc3)c2)ccc1F	233 to 234 °C
CC1C=CC=CN2C3=C(C(=O)CCC3)N(C(=O)Nc3ccccc3F)C12 (stereo not drawn)	139 to 141 °C
N#CSc1cc([N+](=O)[O-])ccc1Cl	103 °C
COc1ccc(C(=O)CN2CCN(C3CCCCO3)C2=O)cc1OC (stereo not drawn)	120 °C
Cn1c(/C=C/C(O)CC(O)CC(=O)O)c(-c2ccccc2)c2ccccc2c1=O (stereo not drawn)	170 °C
CCOC(=O)Cc1ccc(NC(=O)C(C)C)cc1	92.5 to 93.5 °C
CC(=O)C(C)Sc1cc(C(C)(C)C)c(O)c(C(C)(C)C)c1 (stereo not drawn)	94 to 97 °C
CC(C)CO/N=C(\C(=O)O)c1csc(NC(c2ccccc2)(c2ccccc2)c2ccccc2)n1	168 to 169 °C
O=C(NCCC1CCCCCCCCCCC1)C1=C(O)COC1=O	135 to 137 °C
Cc1nc2cc(NC(=O)c3cc4cc(Cl)ncc4n3Cc3cccc(F)c3)ccc2n1C	240 to 242 °C
CC(=O)Nc1ccccc1C(=O)Nc1cccc2cc(Br)cnc12	206 °C
CN(CCO)C(=O)C(C)(C)NC(=O)c1cc2c(n(CC3CCCCC3)c1=O)CCCCCC2	195 to 196 °C
Cc1ccc(CC2CCCN(c3nc(C)c(C(=O)NCc4ccccc4)s3)C2=O)cc1 (stereo not drawn)	110 to 113 °C

Structure (SMILES)	melting point
CC(C(N)=O)c1ccc2c(c1)CCc1cccnc1O2 (stereo not drawn)	162 to 165 °C
CC(=O)Oc1cc(CCc2ccccc2)cc(OC(C)=O)c1OC(C)=O	79.5 to 80 °C
CCN(CC)CCCCNc1ncc2c(n1)NC(=O)N(c1cc(OC)cc(OC)c1)C2	203 to 207 °C
O=C(NCCO)/C(=C/c1ccc(Cl)cc1)NC(=O)c1ccc(OCCC2CC2)cc1	143 to 145 °C
O=S(=O)(CCc1ccc(Cl)cc1)CCc1ccc(Cl)cc1	42 to 43 °C
CCOC(=O)c1cn(N)c2cc3c(cc2c1=O)OCO3	251 to 253 °C
CC(CNC(=O)c1c2ccccc2nc2c1[nH]c1ccccc12)N(C)C (stereo not drawn)	188 to 189 °C
CCS(=O)(=O)Nc1ccc2[nH]cc(C3CCN(C)CC3)c2c1	176 to 178 °C
CC(C)(C)C1=NCC(O)CN1 (stereo not drawn)	210 °C
O=C1NCCC[C@@H]1NS(=O)(=O)c1c(F)cccc1F	152 to 153 °C
COc1ccc(C2Sc3cc(Sc4ccccc4)ccc3NC(=O)C2O)cc1 (stereo not drawn)	195 to 198 °C
Cc1cc2c(cc1C(F)(F)F)NC(=O)CC(c1cccc(-c3nc(CO)sc3C)c1)=N2	214 to 217 °C
O=[N+]([O-])c1cc(-c2nc3ccccc3s2)cc([N+](=O)[O-])c1	73.5 to 84.5 °C
COc1ccc(CNc2nc(SC)ncc2C=O)cc1Cl	124 to 125 °C
O=C(NCC12CC3CC(CC(C3)C1)C2)c1cc(I)ccc1Cl	161 to 162 °C
N#Cc1ccc(-c2ccc(-c3cn4cc(C#N)ccc4n3)cc2)cc1	276 to 278 °C
O=[N+]([O-])c1ccc2nc(N3CCNCC3)cc(Cl)c2c1	175 to 177 °C
CN1CCN(C(=O)Oc2ccccc2)C1=C(C(=O)Oc1ccccc1)[N+](=O)[O-]	214 to 215 °C
O=[N+]([O-])c1ccc2c(c1)S(=O)(=O)NCN2CC(F)(F)F	191 to 193 °C
C1CCC(N2CCCC2)C2NCCCC2C1 (stereo not drawn)	30 to 35 °C
CC(O)C(=O)N[C@H](C(=O)NC(Cc1ccccc1)C(O)CNCC(O)C(Cc1ccccc1)NC(=O)OC(C)(C)C)C(C)C (stereo partly drawn)	210 to 214 °C
O=C1Nc2ccc(-c3cccc(Cl)c3)cc2C2(CCCC2)O1	140 to 145 °C
CC(=O)Oc1c(C)c(C)c2c(c1C)CCC(C)(C=O)O2 (stereo not drawn)	88 to 90 °C
CC1=CC(=Cc2cc(C)cc(C3(C)CCCCC3)c2OCc2ccccc2)C(O)C(C2(C)CCCCC2)=C1 (stereo not drawn)	97 to 99 °C
C=CCOc1ccccc1C=NNC(=N)N	124 °C

Structure (SMILES)	melting point
CCOCc1cc2c([N+](=O)[O-])cccc2cn1	54 °C
CCN(CC)C(=O)Cc1cc(C(C)(C)C)c(O)c(C(C)(C)C)c1	111 to 113 °C
COC(=O)C(Cc1ccccc1)Nc1nnc(N)s1 (stereo not drawn)	186 to 189 °C
Cc1cc(COc2ccc(S(=O)(=O)NC[C@@H](C(=O)NO)N3CCOCC3)cc2)c2ccccc2n1	138 °C
Cc1cccc(COc2ccc(CC(NC(=O)c3cn4ccc(-c5ccc(Cl)cc5)cc4n3)C(=O)O)cc2)c1 (stereo not drawn)	245 to 246 °C
CS(=O)c1ccc(-c2nc3n(c2-c2ccncc2)CCC3)cc1 (stereo not drawn)	164 to 166 °C
Cc1cn(-c2cc(C#N)c(N)c(C(F)(F)F)c2)c(C)n1	208 to 210 °C
O=c1c(C2=Nc3ccccc3S(=O)(=O)N2)c(O)c2ccccc2n1CCCC(F)(F)F	249 to 250 °C
CS(=O)(=O)c1ccc(Oc2ccc(C(=O)c3ccccc3)cc2)cc1	164 to 165 °C
O=[N+]([O-])CC(c1ccc(Cl)cc1)C1CCCCC1O (racemic)	82 to 84 °C
CC(C)c1cc(C(=O)Nc2ccc(C(=O)O)c(O)c2)oc1C(C)C	179 to 180 °C
COc1nc2cc(Cl)c(C)c(N)c2nc1OC	181 to 182 °C
Cc1nc(N2CCCC(=Cc3cccnc3)C2=O)sc1C(=O)NCc1ccccc1	206 to 208 °C
COC(=O)C1=C(C)NC(C)=C(S(C)(=O)=O)C1c1ccccc1C(F)(F)F (stereo not drawn)	160 to 163 °C
CCOC(=O)Cc1c(-c2ccccc2)[nH]c2ccccc12	61 to 62 °C
CNc1nc(-c2cccc(NC(=O)c3cccc(Cl)c3)c2)c2cc(OC)c(OC)cc2n1	124 to 126 °C
CC(=O)c1c(C)[nH]c(C)c1C	204 to 207 °C
CNC(=O)n1nc(Oc2ccc(C(F)(F)F)cc2[N+](=O)[O-])cc1C	70 to 72 °C
COc1nc2cc([N+](=O)[O-])cc(C=O)c2nc1OC	147 to 149 °C
CCc1cc(-c2ccc(OC)cc2)n(-c2ccc(S(N)(=O)=O)cc2)c1	154 to 156 °C
COc1ccc2c(c1)C(C#Cc1ccccc1)(C(F)(F)F)NC(=O)N2 (racemic)	206 to 208 °C
O=c1[nH]c2cc(Cl)cc(Cl)c2c(=O)n1Cc1ccccc1	260 to 265 °C
CC(Cc1ccc(S(=O)(=O)NC(=O)NC2CCCCC2)cc1)NC(=O)N1Cc2ccccc2C1=O (stereo not drawn)	197 to 198 °C
O=C(O)CNC(=O)c1c(O)n(C2CCCC2)c(=O)n(C2CCCCC2)c1=O	222 to 224 °C
Cc1oc(C(N)=O)c(C)c1-c1nc2ccc(C(=O)c3ccccc3)cc2[nH]1	143 to 146 °C

Structure (SMILES)	melting point
CON=CC1CCCN(OC(=O)c2ccccc2)C1 (stereo not drawn)	38 to 40 °C
N=C(Cc1ccccc1-n1cnc2cnc3ccc(-c4ccccc4)cc3c21)NO	253 to 254 °C
Cc1c(F)c(N2CCNC(C)C2)cc2c1c(=O)c(C(=O)O)cn2C1CC1 (stereo not drawn)	189 to 192 °C
CN(C)CCC(Oc1ccc(N)cc1)c1ccccc1 (stereo not drawn)	82 to 84 °C
CNC(=O)[C@@H]1C[C@@H](OC(C)(C)C)CN1S(=O)(=O)c1ccc(Cl)c(COc2cccc3c(-n4ccnc4)cc(C)nc23)c1Cl	84 °C
O=P(O)(O)Cc1ccc2ccccc2c1	234 to 236 °C
CCCCC[C@H](O)/C=C/[C@@H]1[C@H]2Cc3cccc(OC(C)=O)c3C[C@H]2C[C@H]1O	54 to 65 °C
Cc1nc(C)n(-c2cc([C@@H]3C[C@H]3c3nc4ccccc4n3C)nc(C(N)=O)n2)n1 (relative stereo)	119 to 121 °C
Cc1nn(C)c(C)c1-c1cccc(OC2SCC(O)C(O)C2O)c1 (stereo not drawn)	95 °C
CC(=C(C#N)C(=O)c1ccccc1)N(C)C	105 to 106 °C
CC(C)(NS(=O)(=O)c1ccc2oc3cc(Cl)ccc3c2c1)C(=O)NO	195 to 196 °C
Nc1nc2c(sc(=O)n2C2OC(COC(=O)c3ccccc3)C(OC(=O)c3ccccc3)C2OC(=O)c2ccccc2)c(=O)[nH]1 (stereo not drawn)	248 to 250 °C
COc1cccc(S(=O)(=O)n2c(COC(C)(C)C(=O)O)cc3nc(Cl)ccc32)c1	130 °C
COc1c(N2C[C@H](CF)[C@](C)(N)C2)c(F)cc2c(=O)c(C(=O)O)cn(C3CC3)c12	226 to 229 °C
Cc1ccc(-c2ccccc2)cc1CNC(=O)N(C)N	91.6 °C
O=C(O)c1ccccc1C(=O)NCCc1cccnc1	183 to 185 °C
C=C(C)n1c(=O)n(-c2ccc(CCNC[C@H](O)COc3ccc(O)cc3)cc2)c2ncccc21	62 to 64 °C
O=C(NCCc1ccc(F)cc1)c1ccc(S(=O)(=O)Nc2ccccc2C(=O)O)cc1	85 to 86 °C
Cc1cc(CN2CCN(c3ccc(C(=O)NC4CC4)cc3)CC2)cc2c1OC(C)C(=O)N2 (stereo not drawn)	257 to 263 °C
CCOC(=O)C1=C(N)NC2=C(C(=O)CCC2)C1c1cccc(C(=O)OCC)c1 (stereo not drawn)	234 °C
COC(=O)c1cc(-c2ccc(-c3nccs3)cc2)n(-c2ccc(S(N)(=O)=O)cc2)n1	204 to 206 °C
CS(=O)(=O)OCCc1cc(Nc2ncc3c(n2)-c2ccccc2[C@H](c2ccccc2F)C3)ccc1F	99 to 100 °C
CCOC(=O)c1ccc(N2C(=O)CCC2CO)c([N+](=O)[O-])c1 (stereo not drawn)	90 to 95 °C

Source: a melting point compilation (Tetko et al.; mined from patent text by program, amines drawn as free bases though some values may be those of a salt)
